{
  "source": "patent US9283234B2",
  "about": "“Compositions and methods for suppressing endometrial proliferation” (REPROS THERAPEUTICS INC., priority 2006, dated 2016)",
  "key": {"[1]": {"tested_on": "endometrium", "experiment": "Six month endometriosis study: endometrial thickness (ultrasound) / endometrial proliferation", "assay_type": "in vivo, pre-menopausal adult women", "from_the_text": "Comparisons were made to both baseline and visit one ultrasound measurements of endometrial thickness. […]"}, "[2]": {"experiment": "estrogenic, androgenic, anti-estrogenic and anti-androgenic activities", "from_the_text": "These methods include receptor binding and in vivo bioassays such as anti-McGinty, anti-Clauberg, glucocorticoid, estrogenic, androgenic, anti-glucocorticoid (AG), anti-estrogen, and anti-androgen activities as well as post-coital and anti-ovulatory activities where in the leading compounds of the instant invention are used as a reference."}, "[3]": {"experiment": "Six month endometriosis study: side effects and bleeding", "assay_type": "in vivo, pre-menopausal adult women", "details": "for non-menstrual spotting and bleeding with excessive endometrial thickening, D&C performed: treatment phase", "experimental": "Although this was a small study and no definitive conclusions can be made from the safety data, there was no single signal of safety observed.\nA similar event was not seen at the 50 mg dose during the treatment phase. Greater than normal bleeding occurred in two patients in the 50 mg CDB-4124 group after treatment was stopped and a D&C was performed in one and the other successfully managed conservatively."}, "[4]": {"tested_on": "pain associated with endometriosis", "experiment": "Six month endometriosis study: pain diaries and symptom surveys", "assay_type": "in vivo, pre-menopausal adult women", "parameters": "key to score for intensity of pain on a bad day: 0-10 scale; 0 = no pain, 10 = extreme pain", "experimental": "Pain reduction also occurred more rapidly than with the active control, LUCRIN. The response of pain to treatment in this study was analyzed in two ways. Patients in the study maintained daily pain diaries to record the severity and frequency of pain. In addition, at each office visit, patients filled out endometriosis symptom surveys that included a questionnaire that evaluated intensity of pain on a bad day on a scale of 0-10 with 10 being the greatest intensity. […] There appeared to be a dose dependent effect on pain reduction. […] This decrease in duration of pain was statistically better (p=0.0012) than the 117.8 (74%; standard deviation 51.4 days) pain free days achieved with LUCRIN. […] Patients on CDB-4124 12.5 mg and 25 mg doses had 115.9 (66%; standard deviation 69.2 days) and 133.6 (75%; standard deviation 27.4 days) pain free days, respectively. […] The 25 mg and 12.5 mg doses of CDB-4124 were not statistically different from LUCRIN. […] The intensity of pain was asked by the question: “On a scale of 1-10, with 0 being no pain and 10 being extreme pain, how intense was your pain on a bad day?” The mean scores for intensity of pain at baseline were 6.3 for the CDB-4124 groups and 6.1 for the LUCRIN group. […] At month three all four active treatment groups had statistically significant reduction in pain compared with baseline, with the following scores: 3.7 (p=0.03) for 12.5 mg CDB-4124, 3.2 (p=0.03) for 25 mg CDB-4124, 1.6 (p=0.015) for 50 mg CDB-4124 and 1.5 (p=0.016) for LUCRIN. These dose related reductions continued until month six when the values for pain intensity were 2.0 (p=0.008), 2.8 (p=0.023), 0.6 (p=0.004) and 0.7 (p=0.016), respectively. Two months after stopping treatment pain returned and was of similar intensity in all four treatment groups."}, "[5]": {"experiment": "Six month endometriosis study: estrogen and biomarkers of bone resorption", "assay_type": "in vivo, pre-menopausal adult women"}, "[6]": {"experiment": "Measuring serum cortisol in rats", "assay_type": "in vivo"}, "[7]": {"experiment": "Measuring serum corticosterone in rats"}, "[8]": {"details": "Attardi et al., 2002; cited from earlier work"}},
  "data": [
    {"smiles": "COCC(=O)[C@@]1(OC(C)=O)CC[C@H]2[C@@H]3CCC4=CC(=O)CCC4=C3[C@@H](c3ccc(N(C)C)cc3)C[C@@]21C", "note": "[CDB-4124, 21-methoxy-17α-acetoxy-11β-(4 N,N-dimethylaminophenyl)-19-norpregna-4,9-diene-3,20-dione]", "values": [
      {"measurement": "women exhibiting thickened endometrium after three months", "setting": "[1]; 12.5 mg (n=4)", "value": "two women"},
      {"measurement": "women exhibiting thickened endometrium after three months", "setting": "[1]; 25 mg (n=4)", "value": "One person"},
      {"measurement": "women exhibiting thickened endometrium after three months", "setting": "[1]; 50 mg (n=3)", "value": "none of the women"},
      {"measurement": "endometrial proliferation in adult females", "setting": "[1]; high dosage 50 mg/day", "value": "suppresses endometrial proliferation"},
      {"measurement": "endometrial proliferation in adult females", "setting": "[1]; lower dosages 25 mg/day and 12.5 mg/day", "value": "does not suppress endometrial proliferation"},
      {"measurement": "estrogenic, androgenic, anti-estrogenic, and anti-androgenic activities", "setting": "[2]", "value": "lack"},
      {"measurement": "non-menstrual spotting and bleeding with excessive endometrial thickening, D&C performed", "setting": "[3]; 12.5 mg and 25 mg groups", "value": "two cases"},
      {"measurement": "non-menstrual spotting and bleeding with excessive endometrial thickening, D&C performed", "setting": "[3]; 50 mg dose", "value": "not seen"},
      {"measurement": "greater than normal bleeding after treatment was stopped", "setting": "[3]; 50 mg group", "value": "two patients"},
      {"measurement": "days of pain over the first three months versus highest dose of CDB-4124 or LUCRIN", "setting": "[4]; 25 mg and 12.5 mg daily oral", "value": "more days of pain"},
      {"measurement": "relief from pain (intensity) by the first month", "setting": "[4]; 25 mg and 50 mg groups", "value": "Statistically significant relief from pain"},
      {"measurement": "days of pain at the end of the first month compared with baseline", "setting": "[4]; 50 mg, p=0.031", "value": "statistically significant reduction in days of pain"},
      {"measurement": "distress related to pain over the six month exposure", "setting": "[4]; all doses, on average", "value": "reduced distress related to pain"},
      {"measurement": "mean score for intensity of pain on a bad day", "setting": "[4]; baseline, scale 0-10", "value": 6.3},
      {"measurement": "score for intensity of pain on a bad day", "setting": "[4]; month six, 12.5 mg", "value": 2.0},
      {"measurement": "score for intensity of pain on a bad day", "setting": "[4]; month six, 25 mg", "value": 2.8},
      {"measurement": "score for intensity of pain on a bad day", "setting": "[4]; month six, 50 mg", "value": 0.6},
      {"measurement": "score for intensity of pain on a bad day", "setting": "[4]; month three, 12.5 mg", "value": 3.7},
      {"measurement": "score for intensity of pain on a bad day", "setting": "[4]; month three, 25 mg", "value": 3.2},
      {"measurement": "score for intensity of pain on a bad day", "setting": "[4]; month three, 50 mg", "value": 1.6},
      {"measurement": "estrogen concentration (mean)", "setting": "[5]; all doses of CDB-4124", "value": "> 40", "unit": "pg/mL"},
      {"measurement": "biomarkers of bone resorption compared with baseline", "setting": "[5]; month three (LUCRIN, p=0.023), three and six months (any dose arm of CDB-4124)", "value": "no significant changes in biomarkers of bone resorption"},
      {"measurement": "serum cortisol versus control group", "setting": "[6]; 10 mg/kg, 21 days of chronic dosing, FIG. 1", "value": "significantly higher levels of serum cortisol"},
      {"measurement": "dose-dependent effect on serum cortisol", "setting": "[6]; increasing doses, FIG. 2", "value": "increased cortisol"},
      {"measurement": "effect on the primary glucocorticoid of the rat (corticosterone)", "setting": "[7]", "value": "no strong effect"},
      {"measurement": "differences in serum corticosterone between treatment groups", "setting": "[7]; progesterone, CDB-4124 and RU-486 groups compared", "value": "No differences in serum corticosterone"}
    ]},
    {"smiles": "CNc1ccc([C@H]2C[C@@]3(C)[C@@H](CC[C@]3(OC(C)=O)C(=O)COC)[C@@H]3CCC4=CC(=O)CCC4=C32)cc1", "note": "[CDB-4453, 21-methoxy-17α-acetoxy-11β-(4-N-methylaminophenyl)-19-norpregna-4,9-diene-3,20-dione]", "values": [
      {"measurement": "anti-glucocorticoid activity relative to parent CDB-4124", "setting": "[8]", "value": "even lower anti-glucocorticoid activity than its parent"}
    ]}
  ]
}
